Assay [1] concerns Beet Armyworm (BAW) (Spodoptera exigua). The experiment in a line: Bioassay on beet armyworm (BAW), 128-well diet tray assay. The class given is in vivo. Conditions: Spodoptera exigua; Beet armyworm, 50 μg/cm^2; read-out: % Mortality BAW 50 μg/cm^2. How it is done: (§1) Bioassays on Beet Armyworm (“BAW”) and Corn Earworm (“CEW”)
(§2) Certain molecules disclosed in this document were tested against BAW and CEW using procedures described in the following examples. In the reporting of the results, the “BAW & CEW Rating Table” was used (See Table Section).
Bioassays on BAW (Spodoptera exigua)
Bioassays on BAW were conducted using a 128-well diet tray assay. One to five second instar BAW larvae were placed in each well (3 mL) of the diet tray that had been previously filled with 1 mL of artificial diet to which 50 μg/cm^2 of the test compound (dissolved in 50 μL of 90:10 acetone-water mixture) had been applied (to each of eight wells) and then allowed to dry. Trays were covered with a clear self-adhesive cover and held at 25° C., 14:10 light-dark for five to seven days. Percent mortality was recorded for the larvae in each well; activity in the eight wells was then averaged. The results are indicated in the table entitled “Table 5: Biological Results” (See Table Section).

Assay [2] has as its system Corn Earworm (CEW) (Helicoverpa zea). The experiment in a line: Bioassay on corn earworm (CEW), 128-well diet tray assay. The class given is in vivo. Conditions: Helicoverpa zea; Corn earworm, 50 μg/cm^2; read-out: % Mortality CEW 50 μg/cm^2. The protocol: as §1, §2
Bioassays on CEW (Helicoverpa zea)
Bioassays on CEW were conducted using a 128-well diet tray assay. One to five second instar CEW larvae were placed in each well (3 mL) of the diet tray that had been previously filled with 1 mL of artificial diet to which 50 μg/cm^2 of the test compound (dissolved in 50 μL of 90:10 acetone-water mixture) had been applied (to each of eight wells) and then allowed to dry. Trays were covered with a clear self-adhesive cover and held at 25° C., 14:10 light-dark for five to seven days. Percent mortality was recorded for the larvae in each well; activity in the eight wells was then averaged. The results are indicated in the table entitled “Table 5: Biological Results” (See Table Section).

SMILES strings stand for the structures.

As to `CC1S/C(=N\N=C\c2ccc(-c3ncn(-c4ccc(OC(F)(F)F)cc4)n3)cc2)N(c2ccccc2C2CC2)C1=O` (centres unmarked) [Compound 127C], the pest or weed control at 50 µg/cm2, 50 µg/cm2 in assay [1] and in assay [2] was 50 to 100% throughout.
Consider `CCCc1ccccc1N1C(=O)C(C)S/C1=N\N=C\c1ccc(-c2ncn(-c3ccc(OC(F)(F)F)cc3)n2)cc1` (centres unmarked) [Compound 128C], for which the pest or weed control at 50 µg/cm2, 50 µg/cm2 in assay [1] and in assay [2] was 50 to 100% each time.
As for `CC1S/C(=N\N=C\c2ccc(-c3ncn(-c4ccc(OC(F)(F)F)cc4)n3)cc2)N(c2c(Cl)cccc2Cl)C1=O` (centres unmarked) [Compound 129C], the pest or weed control at 50 µg/cm2, 50 µg/cm2 in assay [1] and in assay [2] was 50 to 100% in each case.
Regarding `CC1S/C(=N\N=C\c2ccc(-c3ncn(-c4ccc(OC(F)(F)F)cc4)n3)cc2)N(c2c(F)cccc2F)C1=O` (centres unmarked) [Compound 131C], the pest or weed control at 50 µg/cm2, 50 µg/cm2 in assay [1] and in assay [2] was 50 to 100% throughout.
Consider `CC(C)c1ccccc1N1CCS/C1=N\N=C\c1ccc(-c2ncn(-c3ccc(C(F)(F)F)cc3)n2)cc1` [Compound 134C], for which the pest or weed control at 50 µg/cm2, 50 µg/cm2 in assay [1] and in assay [2] was 50 to 100% throughout.
In the case of `CCC(C)c1ccccc1N1CCS/C1=N\N=C\c1ccc(-c2ncn(-c3ccc(OC(F)(F)F)cc3)n2)cc1` (centres unmarked) [Compound 135C], the pest or weed control at 50 µg/cm2, 50 µg/cm2 in assay [1] and in assay [2] was 50 to 100% in each case.
For the compound `CCc1cccc(C)c1N1CCS/C1=N\N=C\c1ccc(-c2ncn(-c3ccc(OC(F)(F)F)cc3)n2)cc1` [Compound 136C], the pest or weed control at 50 µg/cm2, 50 µg/cm2 in assay [1] and in assay [2] was 50 to 100% throughout.
Take `COc1ccc(N2CCS/C2=N\N=C\c2ccc(-c3ncn(-c4ccc(OC(F)(F)F)cc4)n3)cc2)c(C)c1` [Compound 137C]: the pest or weed control at 50 µg/cm2, 50 µg/cm2 in assay [1] and in assay [2] was 50 to 100% throughout.
Turning to `Cc1ccccc1N1CCS/C1=N\N=C\c1ccc(-c2ncn(-c3ccc(OC(F)(F)F)cc3)n2)cc1` [Compound 141C], the pest or weed control at 50 µg/cm2, 50 µg/cm2 in assay [1] and in assay [2] was 50 to 100% each time.
Turning to `Fc1cccc(Cl)c1N1CCS/C1=N\N=C\c1ccc(-c2ncn(-c3ccc(OC(F)(F)F)cc3)n2)cc1` [Compound 143C], the pest or weed control at 50 µg/cm2, 50 µg/cm2 in assay [1] and in assay [2] was 50 to 100% throughout.
`FC(F)(F)Oc1ccc(-n2cnc(-c3ccc(/C=N/N=C4\SCCN4c4ccccc4-c4ccccc4)cc3)n2)cc1` [Compound 144C]: the pest or weed control at 50 µg/cm2, 50 µg/cm2 in assay [1] and in assay [2] was 50 to 100% in each case.
Take `Fc1cccc(F)c1N1CCS/C1=N\N=C\c1ccc(-c2ncn(-c3ccc(OC(F)(F)F)cc3)n2)cc1` [Compound 148C]: the pest or weed control at 50 µg/cm2, 50 µg/cm2 in assay [1] and in assay [2] was 50 to 100% throughout.
Consider `FC(F)(F)Oc1ccc(-n2cnc(-c3ccc(/C=N/N=C4\SCCN4c4c(Cl)cccc4C(F)(F)F)cc3)n2)cc1` [Compound 149C], for which the pest or weed control at 50 µg/cm2, 50 µg/cm2 in assay [1] and in assay [2] was 50 to 100% in each case.
With `CC(C)Cc1ccccc1N1CCS/C1=N\N=C\c1ccc(-c2ncn(-c3ccc(OC(F)(F)F)cc3)n2)cc1` [Compound 150C], the pest or weed control at 50 µg/cm2, 50 µg/cm2 in assay [1] and in assay [2] was 50 to 100% throughout.
Turning to `FC(F)Oc1ccccc1N1CCS/C1=N\N=C\c1ccc(-c2ncn(-c3ccc(OC(F)(F)F)cc3)n2)cc1` [Compound 152C], the pest or weed control at 50 µg/cm2, 50 µg/cm2 in assay [1] and in assay [2] was 50 to 100% each time.
In the case of `CC1CS/C(=N\N=C\c2ccc(-c3ncn(-c4ccc(OC(F)(F)F)cc4)n3)cc2)N1c1c(F)cccc1F` (centres unmarked) [Compound 159C], the pest or weed control at 50 µg/cm2, 50 µg/cm2 in assay [1] and in assay [2] was 50 to 100% throughout.
As for `CC1CS/C(=N\N=C\c2ccc(-c3ncn(-c4ccc(OC(F)(F)F)cc4)n3)cc2)N1c1c(Cl)cccc1C(F)(F)F` (centres unmarked) [Compound 160C], the pest or weed control at 50 µg/cm2, 50 µg/cm2 in assay [1] and in assay [2] was 50 to 100% each time.
In the case of `Cc1cc(C)c(N2/C(=N/N=C/c3ccc(-c4ncn(-c5ccc(OC(F)(F)F)cc5)n4)cc3)SCC2C)c(C)c1` (centres unmarked) [Compound 161C], the pest or weed control at 50 µg/cm2, 50 µg/cm2 in assay [1] and in assay [2] was 50 to 100% each time.
Take `COc1ccc(N2/C(=N/N=C/c3ccc(-c4ncn(-c5ccc(OC(F)(F)F)cc5)n4)cc3)SCC2C)c(C)c1` (centres unmarked) [Compound 162C]: the pest or weed control at 50 µg/cm2, 50 µg/cm2 in assay [1] and in assay [2] was 50 to 100% throughout.
Turning to `CCC(C)c1ccccc1N1/C(=N/N=C/c2ccc(-c3ncn(-c4ccc(OC(F)(F)F)cc4)n3)cc2)SCC1C` (centres unmarked) [Compound 163C], the pest or weed control at 50 µg/cm2, 50 µg/cm2 in assay [1] and in assay [2] was 50 to 100% each time.
`CC1CS/C(=N\N=C\c2ccc(-c3ncn(-c4ccc(OC(F)(F)F)cc4)n3)cc2)N1c1ccccc1OC(F)F` (centres unmarked) [Compound 164C]: the pest or weed control at 50 µg/cm2, 50 µg/cm2 in assay [1] and in assay [2] was 50 to 100% throughout.
With `CC1CS/C(=N\N=C\c2ccc(-c3ncn(-c4ccc(OC(F)(F)F)cc4)n3)cc2)N1c1ccccc1C(C)(C)C` (centres unmarked) [Compound 165C], the pest or weed control at 50 µg/cm2, 50 µg/cm2 in assay [1] and in assay [2] was 50 to 100% throughout.
Consider `CCC1CS/C(=N\N=C\c2ccc(-c3ncn(-c4ccc(OC(F)(F)F)cc4)n3)cc2)N1c1ccccc1C` (centres unmarked) [Compound 166C], for which the pest or weed control at 50 µg/cm2, 50 µg/cm2 in assay [1] and in assay [2] was 50 to 100% each time.
For `CCC1CS/C(=N\N=C\c2ccc(-c3ncn(-c4ccc(OC(F)(F)F)cc4)n3)cc2)N1c1c(C)cccc1Cl` (centres unmarked) [Compound 167C], the pest or weed control at 50 µg/cm2, 50 µg/cm2 in assay [1] and in assay [2] was 50 to 100% throughout.
Consider `CC1CS/C(=N\N=C\c2ccc(-c3ncn(-c4ccc(OC(F)(F)F)cc4)n3)cc2)N1c1ccccc1OC(F)(F)F` (centres unmarked) [Compound 168C], for which the pest or weed control at 50 µg/cm2, 50 µg/cm2 in assay [1] and in assay [2] was 50 to 100% each time.
Consider `Cc1cs/c(=N\N=C\c2ccc(-c3ncn(-c4ccc(OC(F)(F)F)cc4)n3)cc2)n1-c1c(Cl)cccc1C(F)(F)F` [Compound 169C], for which the pest or weed control at 50 µg/cm2, 50 µg/cm2 in assay [1] and in assay [2] was 50 to 100% in each case.
As for `Cc1cs/c(=N\N=C\c2ccc(-c3ncn(-c4ccc(OC(F)(F)F)cc4)n3)cc2)n1-c1ccccc1OC(F)(F)F` [Compound 170C], the pest or weed control at 50 µg/cm2, 50 µg/cm2 in assay [1] and in assay [2] was 50 to 100% throughout.
Take `Cc1cs/c(=N\N=C\c2ccc(-c3ncn(-c4ccc(OC(F)(F)F)cc4)n3)cc2)n1-c1c(F)cccc1F` [Compound 171C]: the pest or weed control at 50 µg/cm2, 50 µg/cm2 in assay [1] and in assay [2] was 50 to 100% each time.
In the case of `COc1cc(C)c(-n2c(C)cs/c2=N\N=C\c2ccc(-c3ncn(-c4ccc(OC(F)(F)F)cc4)n3)cc2)c(C)c1` [Compound 172C], the pest or weed control at 50 µg/cm2, 50 µg/cm2 in assay [1] and in assay [2] was 50 to 100% throughout.
Turning to `Cc1cccc(C)c1-n1c(C)cs/c1=N\N=C\c1ccc(-c2ncn(-c3ccc(OC(F)(F)F)cc3)n2)cc1` [Compound 175C], the pest or weed control at 50 µg/cm2, 50 µg/cm2 in assay [1] and in assay [2] was 50 to 100% throughout.
For the compound `Cc1cs/c(=N\N=C\c2ccc(-c3ncn(-c4ccc(OC(F)(F)F)cc4)n3)cc2)n1-c1ccccc1C(C)C` [Compound 176C], the pest or weed control at 50 µg/cm2, 50 µg/cm2 in assay [1] and in assay [2] was 50 to 100% throughout.
As for `CC(C)c1ccccc1N1CCCS/C1=N\N=C\c1ccc(-c2ncn(-c3ccc(OC(F)(F)F)cc3)n2)cc1` [Compound 177C], the pest or weed control at 50 µg/cm2, 50 µg/cm2 in assay [1] and in assay [2] was 50 to 100% throughout.
Take `CC(C)c1ccccc1N1CCCS/C1=N\N=C\c1ccc(-c2ncn(-c3ccc(C(F)(F)F)cc3)n2)cc1` [Compound 179C]: the pest or weed control at 50 µg/cm2, 50 µg/cm2 in assay [1] and in assay [2] was 50 to 100% in each case.
Consider `CCC(C)c1ccccc1N1CCCS/C1=N\N=C\c1ccc(-c2ncn(-c3ccc(OC(F)(F)F)cc3)n2)cc1` (centres unmarked) [Compound 183C], for which the pest or weed control at 50 µg/cm2, 50 µg/cm2 in assay [1] and in assay [2] was 50 to 100% in each case.
On to `Cc1cc(C)c(N2CCCS/C2=N\N=C\c2ccc(-c3ncn(-c4ccc(OC(F)(F)F)cc4)n3)cc2)c(C)c1` [Compound 184C], for which the pest or weed control at 50 µg/cm2, 50 µg/cm2 in assay [1] and in assay [2] was 50 to 100% in each case.
In the case of `CCc1ccccc1N1CCCS/C1=N\N=C\c1ccc(-c2ncn(-c3ccc(OC(F)(F)F)cc3)n2)cc1` [Compound 185C], the pest or weed control at 50 µg/cm2, 50 µg/cm2 in assay [1] and in assay [2] was 50 to 100% throughout.
On to `FC(F)(F)Oc1ccc(-n2cnc(-c3ccc(/C=N/N=C4\SCCCN4c4c(Cl)cccc4Cl)cc3)n2)cc1` [Compound 187C], for which the pest or weed control at 50 µg/cm2, 50 µg/cm2 in assay [1] and in assay [2] was 50 to 100% in each case.

Values taken from US9018388B2, “Pesticidal compositions and processes related thereto” (Dow AgroSciences LLC, priority 2012, dated 2015).
